Laboratory results reported in publication PMC12631912, “A Multifunctional Molecular Probe for Multimodal Imaging‐Guided Potent Photothermal/Photodynamic Therapy of Endometriosis” (Advanced Science, 2025).

Legend:
[1] = free ICG; cited from earlier work
[2] = UV absorption and fluorescence emission spectra; assay type: physicochemical; settings: in PBS, cRGD-ILD C ICG = 10 µg mL^−1, ICG 5 µg/mL
Description: The ^1H NMR spectra were conducted utilizing a Varian Unity 400 MHz Spectrometer ([…]) in a variety of deuterated solvents. ESI‐MS were obtained with a Thermo Scientific LTQ XL mass spectrometer (Thermo, USA). UV absorption spectra were measured by a Unico UV‐2000 UV–vis Spectrophotometer (Shanghai, China). Photoluminescence excitation and emission spectra were recorded using an FSP920‐combined Time Resolved and Steady State Fluorescence Spectrometer (Edinburgh, UK), equipped with a 450‐W xenon lamp. Both the UV and fluorescence spectrophotometers were scanned within the wavelength range of 650–850 nm.

[3] = parameters: method as in earlier work; settings: clinically approved contrast agent; cited from earlier work

| fluorescence emission peak ([2]; λex = 755 nm) | absorption peak [2] | Structure (SMILES) | Photothermal conversion efficiency (PCE) [1] | T 1 relaxivities (r 1) [3] |
| --- | --- | --- | --- | --- |
| 764 nm | 755 nm | CC1(C)C(/C=C/C=C/C=C/C=C2\N(CCCCS(=O)(=O)O)c3ccc4ccccc4c3C2(C)C)=[N+](CCCCS(=O)(=O)[O-])c2ccc3ccccc3c21 [ICG, indocyanine green, reference compound] | 15.8% |  |
|  |  | CNC[C@H](O)[C@@H](O)[C@H](O)[C@H](O)CO.CNC[C@H](O)[C@@H](O)[C@H](O)[C@H](O)CO.O=C([O-])CN(CCN(CC(=O)[O-])CC(=O)O)CCN(CC(=O)[O-])CC(=O)O.[Gd+3] [Magnevist] |  | 5.35 mM⁻¹ s⁻¹ |
